Results: patent US20230330045A1 (priority 2020, published 2023)
Counter-ions that a name gives are not always drawn. Like-named read-outs stand apart in the source and are kept apart here.

Biological target: eel acetylcholinesterase (AChE) (Electrophorus electricus, UniProt O42275)
Assay: Eel AChE fluorescence assay (AMPLEX Red kit)
Assay type: biochemical
Experimental: Enzymatic reactions consisted of 50 μM acetylcholine, 200 μM AIVIPLEX™ Red reagent, 1 U/mL horseradish peroxidase, 0.1 U/mL choline oxidase and 0.096 U/mL acetylcholinesterase, with 30 1% DMSO. […] Control reactions lacking acetylcholinesterase but containing 5 μM H2O2 in presence of compounds were analyzed at the same wavelength to exclude compounds that display assay interference. Dose-response curves were performed in duplicate.

[1] = eel AChE activity, at 20 μM, read-out: Percentage inhibition
[2] = read-out: inhibition of enzyme activity compared to DMSO control (screen)

Chain of eel acetylcholinesterase (AChE) (O42275 24-633): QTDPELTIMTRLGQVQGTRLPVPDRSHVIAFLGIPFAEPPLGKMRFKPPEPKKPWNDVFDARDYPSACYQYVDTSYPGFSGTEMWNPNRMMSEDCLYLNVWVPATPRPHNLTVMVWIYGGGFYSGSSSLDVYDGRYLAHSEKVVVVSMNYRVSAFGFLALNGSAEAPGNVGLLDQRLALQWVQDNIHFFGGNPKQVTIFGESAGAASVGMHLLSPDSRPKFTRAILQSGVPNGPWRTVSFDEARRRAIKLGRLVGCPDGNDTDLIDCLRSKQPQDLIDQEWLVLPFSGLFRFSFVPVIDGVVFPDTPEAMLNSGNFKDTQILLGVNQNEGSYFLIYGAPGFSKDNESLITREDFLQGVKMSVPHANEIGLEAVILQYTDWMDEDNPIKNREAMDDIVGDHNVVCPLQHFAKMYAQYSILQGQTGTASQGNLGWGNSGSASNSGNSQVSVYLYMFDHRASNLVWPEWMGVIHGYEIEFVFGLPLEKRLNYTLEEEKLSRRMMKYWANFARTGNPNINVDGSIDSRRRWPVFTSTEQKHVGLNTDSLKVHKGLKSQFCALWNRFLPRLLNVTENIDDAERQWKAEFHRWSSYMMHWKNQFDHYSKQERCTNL

Question: With `O=C1c2ccccc2-c2ccccc21` [fluorenone] as the molecule, how does the inhibition at 20 µM [1] read?
Answer: 3%

Question: `Cc1cc(N)c2ccccc2[n+]1CCCCCCCCCC[n+]1c(C)cc(N)c2ccccc21` [dequalinium chloride] was tested. Which “assay interference test versus enzyme-free H2O2 reaction” value (parallel dose-response with 5 μM H2O2) did it give?
Answer: likely represent true inhibition of the enzyme

Question: And the inhibition at 20 µM [2]?
Answer: ≥ 50%

Question: And the “Hill slope, eel AChE dose-response” value (sixteen-point serial dilution, four-parameter fit)?
Answer: 0.87

Question: Which results are given for `CCN(CC)CCC[C@H](C)Nc1c2ccc(Cl)cc2nc2ccc(OC)cc12` [quinacrine hydrochloride]?
Answer: inhibition at 20 µM [1]: 61.8%; inhibition at 20 µM [2]: > 50%
